Patent EP0252983B1, “SALTS OF N-(VINYLOXIETHYL)DITHIOCARBAMIC ACID, METHOD OF OBTAINING THEREOF AND […] ON THEM” (priority 1985, dated 1987)

Columns and labels:
Cladosporium resinae = assay: Mycelial growth inhibition on agar (contact activity); assay type: cell-based; settings: Tabelle 11
Bacillus = assay: Bactericidal activity on agar (concentration of complete growth inhibition); assay type: cell-based; settings: % bezogen auf den Wirkstoff; am 5. Tag
Protocol: (§1) Geprüft wird die bakterizide Aktivität von Kalium-, Natrium-, Zink- und Kupfersalzen der N-(Vinyloxyäthyl)dithiocarbamidsäure gegen Bakterien der Gattungen Bacillus, Micrococcus, Pseudomonas, Escherichia und Xantomonas.
(§2) Man stellt wäßrige Stofflösungen verschiedener Konzentration her, die so berechnet werden, daß die Stoffkonzentration in der Petri-Schale bei der Gabe von 1 ml Lösung in das geschmolzene Nährmedium (45 bis 50 °C) zwischen 0,003 und 25 % (bezogen auf den Wirkstoff) schwankt. Nach 18 bis 24 Stunden bringt man auf die Oberfläche des Nährmediums 0,1 ml wäßrige Suspension eintägiger reiner Kulturen von Bakterien auf und verteilt sie gleichmäßig. In Kontrollschalen verteilt sich 0,1 ml Wasser über die Oberfläche des Nährmediums. Die Inkubation erfolgt bei 37 °C innerhalb von 5 Tagen. Die Wirksamkeit der Stoffe wird nach dem Auftreten des Bakterienwachstums auf der Oberfläche des Nährmediums eingeschätzt. Die Prüfergebnisse sind in der Tabelle 13 dargestellt.

Pseudomonas = assay: as above; assay type: cell-based; settings: % bezogen auf den Wirkstoff; am 5. Tag
Protocol: as §1, §2

Micrococcus = assay: as above; assay type: cell-based; settings: % bezogen auf den Wirkstoff; am 5. Tag
Protocol: as §1, §2

Xantomonas = assay: as above; assay type: cell-based; settings: % bezogen auf den Wirkstoff; am 5. Tag
Protocol: as §1, §2

Escherichia = assay: as above; assay type: cell-based; settings: % bezogen auf den Wirkstoff; am 5. Tag
Protocol: as §1, §2

[1] = test system: Cladosporium cladosporioides; assay: Mycelial growth inhibition on agar (contact activity); assay type: cell-based; settings: Tabelle 11
Acremonium charticola = assay: as above; assay type: cell-based; settings: Tabelle 11
Acremonium cowum = assay: as above; assay type: cell-based; settings: Tabelle 11
Walrotiela subiculesa = assay: as above; assay type: cell-based; settings: Tabelle 11
Protocol: (§3) Die Prüfungen werden nach dem Verfahren zur Ermittlung der Kontaktaktivität durchgeführt. Man verwendet das in Wasser gelöste Kalium-N-(vinyloxyäthyl)dithiocarbamat, führt es in ein Nährmedium ein und vergießt auf Petri-Schalen. Nach 24 Stunden wird mit Pilzmyzelium nach einem Stichverfahren geimpft. Dann temperiert man die Schalen innerhalb von 5 Tagen bei einer zwischen 24 und 26 °C liegenden Temperatur und mißt den Durchmesser von Pilzkolonien, ermittelt den Prozentsatz der Hemmung des Myzelwachstums (S) ausgehend von Angaben am 5. Tag nach der Abbott-Formel [drawing 13] worin dc für den Durchmesser der Pilzkolonien, de für den Durchmesser von Pilzkolonien in der Schale stehen, wo ein die zu prüfenden Stoffe enthaltendes Medium vorhanden ist. Dieses Verfahren zur Ermittlung der mikrobiologischen Aktivität ist in anderen Beispielen verwendet.
(§4) Die Pilzkulturen werden auf Würzeagar gezüchtet. Ergebnisse, erhalten bei der Prüfung der fungiziden Aktivität gegen reine Kulturen von Mikroorganismen, welche Bioschädigungen hervorrufen, sind in der Tabelle 1 dargestellt.

Penicillium charlesii = assay: as above; assay type: cell-based; settings: Tabelle 11
Protocol: as §3, §4

Geotrichum candidum Link = assay: as above; assay type: cell-based; settings: Tabelle 11
Protocol: as §3, §4

Penicillium chrysogenum = assay: as above; assay type: cell-based; settings: Tabelle 11
Protocol: as §3, §4

[2] = Solubility in water (descriptive); assay type: physicochemical
[3] = Storage stability (descriptive); assay type: physicochemical
[4] = Konzentration des Präparats 0,01 %
[5] = Konzentration des Präparats 0,02 %
[6] = Konzentration des Präparats 0,05 %
[7] = Konzentration des Präparats 0,10 %
[8] = Konzentration des Präparats 0,005 %

Substance: Kupfer-bis-(N-vinyloxyäthyldithiocarbamat)
- Myzelhemmung in % (Cladosporium resinae; [4]): 50%
- Myzelhemmung in % (Cladosporium resinae; [5]): 80%
- Myzelhemmung in % (Cladosporium resinae; [6]): 90%
- Myzelhemmung in % (Cladosporium resinae; [7]): 100%
- Myzelhemmung in % (Cladosporium resinae; [8]): 34%
- Konzentrationen, welche das Bakterienwachstum völlig (100 %) hemmen (Bacillus): 0,15%
- Konzentrationen, welche das Bakterienwachstum völlig (100 %) hemmen (Pseudomonas): 0,15%
- Konzentrationen, welche das Bakterienwachstum völlig (100 %) hemmen (Micrococcus): 0,15%
- Konzentrationen, welche das Bakterienwachstum völlig (100 %) hemmen (Xantomonas): 0,15%
- Konzentrationen, welche das Bakterienwachstum völlig (100 %) hemmen (Escherichia): 0,15%
- Myzelhemmung in % [1, 4]: 36%
- Myzelhemmung in % [1, 5]: 65%
- Myzelhemmung in % [1, 6]: 80%
- Myzelhemmung in % [1, 7]: 100%
- Myzelhemmung in % [1, 8]: 15%
- Myzelhemmung in % (Acremonium charticola; [4]): 96%
- Myzelhemmung in % (Acremonium charticola; [5]): 100%
- Myzelhemmung in % (Acremonium charticola; [6]): 100%
- Myzelhemmung in % (Acremonium charticola; [7]): 100%
- Myzelhemmung in % (Acremonium charticola; [8]): 70%
- Myzelhemmung in % (Acremonium cowum; [4]): 100%
- Myzelhemmung in % (Acremonium cowum; [5]): 100%
- Myzelhemmung in % (Acremonium cowum; [6]): 100%
- Myzelhemmung in % (Acremonium cowum; [7]): 100%
- Myzelhemmung in % (Acremonium cowum; [8]): 100%
- Myzelhemmung in % (Walrotiela subiculesa; [4]): 0%
- Myzelhemmung in % (Walrotiela subiculesa; [5]): 10%
- Myzelhemmung in % (Walrotiela subiculesa; [6]): 37%
- Myzelhemmung in % (Walrotiela subiculesa; [7]): 100%
- Myzelhemmung in % (Walrotiela subiculesa; [8]): 0%
- Myzelhemmung in % (Penicillium charlesii; [4]): 30%
- Myzelhemmung in % (Penicillium charlesii; [5]): 80%
- Myzelhemmung in % (Penicillium charlesii; [6]): 100%
- Myzelhemmung in % (Penicillium charlesii; [7]): 100%
- Myzelhemmung in % (Penicillium charlesii; [8]): 15%
- Myzelhemmung in % (Geotrichum candidum Link; [4]): 100%
- Myzelhemmung in % (Geotrichum candidum Link; [5]): 100%
- Myzelhemmung in % (Geotrichum candidum Link; [6]): 100%
- Myzelhemmung in % (Geotrichum candidum Link; [7]): 100%
- Myzelhemmung in % (Geotrichum candidum Link; [8]): 100%
- Myzelhemmung in % (Penicillium chrysogenum; [4]): 25%
- Myzelhemmung in % (Penicillium chrysogenum; [5]): 36%
- Myzelhemmung in % (Penicillium chrysogenum; [6]): 70%
- Myzelhemmung in % (Penicillium chrysogenum; [7]): 100%
- Myzelhemmung in % (Penicillium chrysogenum; [8]): 10%
- Löslichkeit in Wasser [2]: unlöslich
- Lagerbeständigkeit [3]: lagerbeständig
